US20260125371A1, “METHOD FOR INHIBITING CLOSTRIDIOIDES DIFFICILE SPORE GERMINATION” (UNIVERSITY OF NOTRE DAME DU LAC, priority 2022, published 2026)
Read-outs that look alike come from different tables or passages of the source.

Assays:
S. aureus = experiment: MIC against S. aureus strains; format: cell-based; settings: Staphylococcus aureus, S. aureus VRS1; read-out: MIC
[1] = system: S. haemolyticus ATCC 29970; experiment: MIC against S. haemolyticus; format: cell-based; settings: Staphylococcus haemolyticus, ATCC29970; S. haemolyticus ATCC 29970; read-out: MIC
A. baumanii ATCC17961 = experiment: MIC against A. baumanii; format: cell-based; settings: Acinetobacter baumannii; A. baumanii ATCC17961; read-out: MIC
P. aeruginosa ATCC27853 = experiment: MIC against P. aeruginosa; format: cell-based; settings: Pseudomonas aeruginosa; P. aeruginosa ATCC27853; read-out: MIC
E. aerogenes ATCC35029 = experiment: MIC against E. aerogenes; format: cell-based; settings: Klebsiella aerogenes; E. aerogenes ATCC35029; read-out: MIC
E. coli ATCC25922 = experiment: MIC against E. coli; format: cell-based; settings: Escherichia coli; E. coli ATCC25922; read-out: MIC
Gram-negative bacteria = format: cell-based
C. difficile ATCC 43255 [2] = experiment: Minimal-bactericidal concentration (MBC); format: cell-based, Clostridioides difficile; settings: MBC/MIC≤4 indicates bactericidal
C. difficile ATCC 43255 [3] = settings: cited from earlier work
C. difficile strains = settings: cited from earlier work
[4] = system: Bacteroides fragilis HM-709; settings: cited from earlier work
[5] = system: Bifidobacterium longum HM-846; settings: cited from earlier work
[6] = system: Fusobacterium nucleatum HM-992; settings: cited from earlier work
[7] = system: Lactobacillus reuteri HM-102; settings: cited from earlier work
[8] = system: Lactobacillus gasseri HM-644; settings: cited from earlier work
Eubacterium sp. HM-178 = settings: cited from earlier work
[9] = C. difficile strains of Table 4

CCc1c(Cl)c(O)c(Cl)c(O)c1C(=O)O[C@H]1[C@H](O)[C@H](OC)[C@H](OC/C2=C\C=C\C[C@H](O)/C(C)=C/[C@H](CC)[C@@H](O[C@@H]3OC(C)(C)[C@@H](OC(=O)C(C)C)[C@H](O)[C@@H]3O)/C(C)=C/C(C)=C/C[C@@H]([C@@H](C)O)OC2=O)O[C@@H]1C [FDX, fidaxomicin]
0.25 µg/mL: MIC90 (101 strains) (C. difficile strains; 101 C. difficile strains) | MIC (C. difficile strains; C. difficile BAA-1870) | MIC90 (C. difficile strains; [9]) | MIC (C. difficile strains; strain BAA-1870) | MIC (C. difficile strains; strain NR-13429) | MIC (C. difficile strains; strain NR-13437) | MIC (C. difficile strains; strain NR-32885) | MIC (C. difficile strains; strain NR-32889) | MIC (C. difficile strains; strain NR-49278) | MIC (C. difficile strains; strain NR-49279) | MIC (C. difficile strains; strain NR-49281) | MIC (C. difficile strains; strain NR-49286) | MIC (C. difficile strains; strain NR-49287) | MIC (C. difficile strains; strain NR-49288) | MIC (C. difficile strains; strain NR-49291) | MIC (C. difficile strains; strain NR-49314)
64 µg/mL: MIC (S. aureus)
<0.06 µg/mL: MIC [6]
> 128 µg/mL: MIC (A. baumanii ATCC17961) | MIC (P. aeruginosa ATCC27853) | MIC (E. aerogenes ATCC35029) | MIC (E. coli ATCC25922)
>8 µg/mL: MIC (C. difficile strains; C. difficile 23828, resistant to FDX) | MIC (C. difficile strains; strain RMA23828) | MIC (C. difficile strains; strain RMA27081)
no activity: activity against Gram-negative organisms (Gram-negative bacteria)
<0.01 µg/mL: MIC [5]
≤0.01 µg/mL: MIC (C. difficile strains; C. difficile NR49310) | MIC (C. difficile strains; strain NR49310)
bactericidal: bactericidal or bacteriostatic (C. difficile ATCC 43255 [2])
0.0125 µg/mL: MIC (C. difficile strains; strain NR-49297)
0.06 µg/mL: MIC (C. difficile ATCC 43255 [3]; C. difficile ATCC43255) | MIC (C. difficile ATCC 43255 [3]; strain ATCC43255) | IMIC50 (101 strains) (C. difficile strains; 101 C. difficile strains) | MIC50 (C. difficile strains; [9]) | MIC (C. difficile strains; strain HM-747) | MIC (C. difficile strains; strain NR-13434) | MIC (C. difficile strains; strain NR-13438) | MIC (C. difficile strains; strain NR-32882) | MIC (C. difficile strains; strain NR-32890) | MIC (C. difficile strains; strain NR-49277) | MIC (C. difficile strains; strain NR-49282) | MIC (C. difficile strains; strain NR-49284) | MIC (C. difficile strains; strain NR-49285) | MIC (C. difficile strains; strain NR-49290) | MIC (C. difficile strains; strain NR-49304) | MIC (C. difficile strains; strain NR-49315) | MIC (C. difficile strains; strain NR-49317) | MIC (C. difficile strains; strain NR-49324) | MIC (C. difficile strains; strain RMA24923)
1 µg/mL: MIC (C. difficile strains; C. difficile BAA-1803) | MIC (C. difficile strains; strain BAA-1803)
0.01 µg/mL: MIC (C. difficile strains; C. difficile 24531, resistant to VAN) | MIC (C. difficile strains; C. difficile NR49294) | MIC (C. difficile strains; C. difficile NR49305) | MIC (C. difficile strains; strain ATCC43598) | MIC (C. difficile strains; strain NR49294) | MIC (C. difficile strains; strain NR49305) | MIC (C. difficile strains; strain RMA24531) | MIC (C. difficile strains; strain RMA27173)
>32 µg/mL: MIC [4] | MIC [7]
0.125 µg/mL: MIC (C. difficile strains; C. difficile NR49318) | MIC (C. difficile strains; strain BAA-1801) | MIC (C. difficile strains; strain BAA-1804) | MIC (C. difficile strains; strain HM-745) | MIC (C. difficile strains; strain NR49318) | MIC (C. difficile strains; strain NR-13431) | MIC (C. difficile strains; strain NR-13433) | MIC (C. difficile strains; strain NR-13436) | MIC (C. difficile strains; strain NR-32883) | MIC (C. difficile strains; strain NR-32887) | MIC (C. difficile strains; strain NR-49280) | MIC (C. difficile strains; strain NR-49298) | MIC (C. difficile strains; strain NR-49299) | MIC (C. difficile strains; strain NR-49308) | MIC (C. difficile strains; strain NR-49312) | MIC (C. difficile strains; strain NR-49316) | MIC (C. difficile strains; strain NR-49319) | MIC (C. difficile strains; strain NR-49320) | MIC (C. difficile strains; strain NR-49321)
16 µg/mL: MIC [1] | MIC (Eubacterium sp. HM-178)
2 µg/mL: MIC [8]
4 µg/mL: MIC (C. difficile strains; C. difficile 26675, resistant to MTZ) | MIC (C. difficile strains; strain RMA23691) | MIC (C. difficile strains; strain RMA26675)
0.015 µg/mL: MIC (C. difficile strains; strain BAA-1812)
0.03 µg/mL: MIC (C. difficile strains; C. difficile NR49302) | MIC (C. difficile strains; strain BAA-1814) | MIC (C. difficile strains; strain HM-88) | MIC (C. difficile strains; strain HM-89) | MIC (C. difficile strains; strain NR49302) | MIC (C. difficile strains; strain NR-13427) | MIC (C. difficile strains; strain NR-32884) | MIC (C. difficile strains; strain NR-32886) | MIC (C. difficile strains; strain NR-32888) | MIC (C. difficile strains; strain NR-32891) | MIC (C. difficile strains; strain NR-32892) | MIC (C. difficile strains; strain NR-32895) | MIC (C. difficile strains; strain NR-32896) | MIC (C. difficile strains; strain NR-32897) | MIC (C. difficile strains; strain NR-32900) | MIC (C. difficile strains; strain NR-32903) | MIC (C. difficile strains; strain NR-32904) | MIC (C. difficile strains; strain NR-49283) | MIC (C. difficile strains; strain NR-49289) | MIC (C. difficile strains; strain NR-49300) | MIC (C. difficile strains; strain NR-49301) | MIC (C. difficile strains; strain NR-49303) | MIC (C. difficile strains; strain NR-49306) | MIC (C. difficile strains; strain NR-49307) | MIC (C. difficile strains; strain NR-49309) | MIC (C. difficile strains; strain NR-49311) | MIC (C. difficile strains; strain NR-49313) | MIC (C. difficile strains; strain NR-49325) | MIC (C. difficile strains; strain NR-49326) | MIC (C. difficile strains; strain NR-49327) | MIC (C. difficile strains; strain NR-49328) | MIC (C. difficile strains; strain NR-49329)
0.5 µg/mL: MIC (C. difficile strains; C. difficile NR49292) | MIC (C. difficile strains; strain NR49292)
≤0.03 µg/mL: MIC (C. difficile strains; strain HM-746) | MIC (C. difficile strains; strain NR-13428) | MIC (C. difficile strains; strain NR-13430) | MIC (C. difficile strains; strain NR-13435) | MIC (C. difficile strains; strain NR-13553) | MIC (C. difficile strains; strain NR-49293) | MIC (C. difficile strains; strain NR-49295) | MIC (C. difficile strains; strain NR-49296) | MIC (C. difficile strains; strain NR-49323)
